From patent US20190315806A1, “POLYMYXIN DERIVATIVE, PREPARATION METHOD AND APPLICATION THEREOF” (priority 2016, published 2019)
≈ marks a conversion by molar mass, not a printed value. Where two headings read alike, the source gives them in different places. Where a SMILES comes first, the peptide text is derived from it. Bridges are numbered along the chain shown (N, C = ends). [ ]: non-standard residue; d: D form. The star is where a group is joined. dPhe(4-NH2) = Nc1ccc(C[C@@H](N)C(=O)O)cc1; Heptanoyl(6-Me) = CC(C)CCCCC(=O)*; Nonanoyl = CCCCCCCCC(=O)*; X2 = CC[C@H](C)CCCCC(=O)*; dDab = NCC[C@@H](N)C(=O)O; Dab = NCC[C@H](N)C(=O)O; Nva = CCC[C@H](N)C(=O)O

Key:
Type in all cases: cell-based
[1] = system: Klebsiella pneumoniae ATCC BAA-2146 (NDM-1); assay: Antibacterial activity, MIC by dish double dilution method
In short: (§1)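 MIC by CLSI agar two-fold dilution: compounds at final 0.03–128 μg/mL in agar, strains inoculated at 10^4 CFU/dot by multipoint inoculator. Incubation 18–24 h at 35 °C; MIC is the lowest concentration giving no colony growth.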

[2] = Nephrotoxicity test, renal cytotoxicity by MTT method; settings: African green monkey
Description: African green monkey kidney cells (Vero cells) were cultured in MEM medium (Hyclone), 10% fetal calf serum (Invitrogen) was added before use, cultured at 37° C. under 5% CO2.
Experiment was carried out using MTT method. After digestion, cells in logarithmic growth phase were counted, then the cells were inoculated in a 96-well culture plate. After incubation for 24 h to be adherent, cells were treated with a concentration gradient of a compound of the invention (e.g., a compound prepared in the Embodiments) and the controls. After 72 h, the culture solution was removed, 100 uL of MTT reagent at a concentration of 0.5 mg/ml was added, the medium was removed after incubating for 3 hours in a 37° C. incubator. Add 150 μL DMSO solvent to each well, mix for 3 min, after which the absorbance at 570 nm (A) was measured with a microplate reader.
Cell viability %=(Adosed cell−Abackground)/(Acontrol cell−Abackground)×100%. The average value of 3 parallel wells was taken for each detection point, and the inhibition curve was drawn to calculate the IC50 value.
The African green monkey kidney cells (Vero cells) used in the experiment were from the Cell Resource Center of the Institute of Basic Medicine, Chinese Academy of Medical Sciences.

[3] = system: Pseudomonas aeruginosa ATCC 27853
In short: as §1

[4] = system: Escherichia coli ATCC 25922
In short: as §1

[5] = system: Acinetobacter baumannii ATCC 19606
In short: as §1

[6] = system: Staphylococcus epidermidis ATCC 12228
In short: as §1

[7] = agar dilution, 10^4 CFU/dot, 18 to 24 hours at 35° C.

Compound	MIC K. pneumoniae ATCC BAA-2146 (NDM-1) ([1]; ATCC BAA-2146)	MIC P. aeruginosa ATCC 27853 ([3]; ATCC 27853)	MIC E. coli ATCC 25922 ([4]; ATCC 25922)	MIC A. baumannii ATCC 19606 ([5]; ATCC 19606)	MIC S. epidermidis ATCC 12228 ([6]; ATCC 12228)	IC50 at 72 h [2]	MIC K. pneumoniae ATCC BAA-2146 (NDM-1) [1, 7]	IC50 at 72 h ([2]; MTT, 72 h treatment, 3 parallel wells, read-out: Renal cytotoxicity IC50, Vero cells)	MIC P. aeruginosa ATCC 27853 [3, 7]	MIC E. coli ATCC 25922 [4, 7]	MIC A. baumannii ATCC 19606 [5, 7]	MIC S. epidermidis ATCC 12228 [6, 7]
CC[C@H](C)CCCCC(=O)N[C@@H](CCN)C(=O)N[C@H](C(=O)N[C@@H](CCN)C(=O)N[C@H]1CCNC(=O)[C@H]([C@@H](C)O)NC(=O)[C@H](CCN)NC(=O)[C@H](CCN)NC(=O)[C@H](C(C)C)NC(=O)[C@@H](CC(C)C)NC(=O)[C@H](CCN)NC1=O)[C@@H](C)O [Compound 72, (S)-6-methyloctanoyl-Dab-Thr-Dab-ring(4-10)[Dab-Dab-D-Leu-Val-Dab-Dab-Thr]] (X2-[Dab]T[Dab][Dab][Dab][dL]V[Dab][Dab]T; lactam 4-C)	0.5 µg/mL (≈ 0.433 µM)	2 µg/mL (≈ 1.73 µM)	0.5 µg/mL (≈ 0.433 µM)	0.5 µg/mL (≈ 0.433 µM)	128 µg/mL (≈ 111 µM)	131 ± 8.69 µg/mL (≈ 113 µM)	–	–	–	–	–	–
CC[C@H](C)CCCCC(=O)N[C@@H](CCN)C(=O)N[C@H](C(=O)N[C@@H](CCN)C(=O)N[C@H]1CCNC(=O)[C@H]([C@@H](C)O)NC(=O)[C@H](CCN)NC(=O)[C@H](CCN)NC(=O)[C@H](CC(C)C)NC(=O)[C@@H](Cc2ccccc2)NC(=O)[C@H](CCN)NC1=O)[C@@H](C)O [Compound 42, (S)-6-methyloctanoyl-Dab-Thr-Dab-ring(4-10)[Dab-Dab-D-Phe-Leu-Dab-Dab-Thr]] (X2-[Dab]T[Dab][Dab][Dab][dF]L[Dab][Dab]T; lactam 4-C)	–	–	–	–	–	–	0.5 µg/mL (≈ 0.415 µM)	71.3 ± 6.08 µg/mL (≈ 59.2 µM)	2 µg/mL (≈ 1.66 µM)	0.5 µg/mL (≈ 0.415 µM)	1 µg/mL (≈ 0.831 µM)	32 µg/mL (≈ 26.6 µM)
CCCCCCCCC(=O)N[C@@H](CCN)C(=O)N[C@H](C(=O)N[C@@H](CCN)C(=O)N[C@H]1CCNC(=O)[C@H]([C@@H](C)O)NC(=O)[C@H](CCN)NC(=O)[C@H](CCN)NC(=O)[C@H](CC(C)C)NC(=O)[C@@H](Cc2ccccc2)NC(=O)[C@H](CCN)NC1=O)[C@@H](C)O [Compound 46, nonanoyl-Dab-Thr-Dab-ring(4-10)[Dab-Dab-D-Phe-Leu-Dab-Dab-Thr]] (Nonanoyl-[Dab]T[Dab][Dab][Dab][dF]L[Dab][Dab]T; lactam 4-C)	2 µg/mL (≈ 1.66 µM)	2 µg/mL (≈ 1.66 µM)	1 µg/mL (≈ 0.831 µM)	1 µg/mL (≈ 0.831 µM)	32 µg/mL (≈ 26.6 µM)	33.1 ± 2.64 µg/mL (≈ 27.5 µM)	–	–	–	–	–	–
CC[C@H](C)CCCCC(=O)N[C@@H](CCN)C(=O)N[C@H](C(=O)N[C@@H](CCN)C(=O)N[C@H]1CCNC(=O)[C@H]([C@@H](C)O)NC(=O)[C@H](CCN)NC(=O)[C@H](CCN)NC(=O)[C@H](CC(C)C)NC(=O)[C@@H](Cc2ccc(N)cc2)NC(=O)[C@H](CCN)NC1=O)[C@@H](C)O [Compound 11, (S)-6-methyloctanoyl-Dab-Thr-Dab-ring(4-10)[Dab-Dab-D-Phe(4-NH2)-Lue-Dab-Dab-Thr]] (X2-[Dab]T[Dab][Dab][Dab][dPhe(4-NH2)]L[Dab][Dab]T; lactam 4-C)	2 µg/mL (≈ 1.64 µM)	2 µg/mL (≈ 1.64 µM)	1 µg/mL (≈ 0.821 µM)	1 µg/mL (≈ 0.821 µM)	128 µg/mL (≈ 105 µM)	166 ± 15.7 µg/mL (≈ 137 µM)	–	–	–	–	–	–
CC(C)CCCCC(=O)N[C@@H](CCN)C(=O)N[C@H](C(=O)N[C@H](CO)C(=O)N[C@H]1CCNC(=O)[C@H]([C@@H](C)O)NC(=O)[C@H](CCN)NC(=O)[C@H](CCN)NC(=O)[C@H]([C@@H](C)O)NC(=O)[C@@H](Cc2ccccc2)NC(=O)[C@H](CCN)NC1=O)[C@@H](C)O [Compound 116, 6-methylheptanoyl-Dab-Thr-D-Ser-ring(4-10)[Dab-Dab-D-Phe-Thr-Dab-Dab-Thr]] ({Heptanoyl(6-Me)}-[Dab]T[dS][Dab][Dab][dF]T[Dab][Dab]T; lactam 4-C)	1 µg/mL (≈ 0.859 µM)	2 µg/mL (≈ 1.72 µM)	0.25 µg/mL (≈ 0.215 µM)	0.25 µg/mL (≈ 0.215 µM)	>128 µg/mL	> 500 µg/mL	–	–	–	–	–	–
CCC[C@@H]1NC(=O)[C@@H](CC(C)C)NC(=O)[C@H](CCN)NC(=O)[C@@H](NC(=O)[C@H](CCN)NC(=O)[C@@H](NC(=O)[C@H](CCN)NC(=O)CCCC[C@@H](C)CC)[C@@H](C)O)CCNC(=O)[C@H]([C@@H](C)O)NC(=O)[C@H](CCN)NC(=O)[C@H](CCN)NC1=O [Compound 73, (S)-6-methyloctanoyl-Dab-Thr-Dab-ring(4-10)[Dab-Dab-D-Leu-Nva-Dab-Dab-Thr]] (X2-[Dab]T[Dab][Dab][Dab][dL][Nva][Dab][Dab]T; lactam 4-C)	1 µg/mL (≈ 0.865 µM)	1 µg/mL (≈ 0.865 µM)	1 µg/mL (≈ 0.865 µM)	1 µg/mL (≈ 0.865 µM)	128 µg/mL (≈ 111 µM)	108 ± 9.16 µg/mL (≈ 93.9 µM)	–	–	–	–	–	–

Now from value to compound, other results behind:

MIC K. pneumoniae ATCC BAA-2146 (NDM-1) ([1]; ATCC BAA-2146)	MIC P. aeruginosa ATCC 27853 ([3]; ATCC 27853)	MIC E. coli ATCC 25922 ([4]; ATCC 25922)	MIC A. baumannii ATCC 19606 ([5]; ATCC 19606)	MIC S. epidermidis ATCC 12228 ([6]; ATCC 12228)	Compound	IC50 at 72 h [2]	MIC K. pneumoniae ATCC BAA-2146 (NDM-1) [1, 7]	IC50 at 72 h ([2]; MTT, 72 h treatment, 3 parallel wells, read-out: Renal cytotoxicity IC50, Vero cells)	MIC P. aeruginosa ATCC 27853 [3, 7]	MIC E. coli ATCC 25922 [4, 7]	MIC A. baumannii ATCC 19606 [5, 7]	MIC S. epidermidis ATCC 12228 [6, 7]
0.5 µg/mL (≈ 0.437 µM)	0.5 µg/mL (≈ 0.437 µM)	0.5 µg/mL (≈ 0.437 µM)	1 µg/mL (≈ 0.875 µM)	>128 µg/mL	CC(C)CCCCC(=O)N[C@@H](CCN)C(=O)N[C@H](C(=O)N[C@@H](CCN)C(=O)N[C@H]1CCNC(=O)[C@H]([C@@H](C)O)NC(=O)[C@H](CCN)NC(=O)[C@H](CCN)NC(=O)[C@H]([C@@H](C)O)NC(=O)[C@@H](CC(C)C)NC(=O)[C@H](CCN)NC1=O)[C@@H](C)O [Compound 103, 6-methylheptanoyl-Dab-Thr-Dab-ring(4-10)[Dab-Dab-D-Leu-Thr-Dab-Dab-Thr]] ({Heptanoyl(6-Me)}-[Dab]T[Dab][Dab][Dab][dL]T[Dab][Dab]T; lactam 4-C)	276 ± 17.7 µg/mL (≈ 241 µM)	–	–	–	–	–	–
0.5 µg/mL (≈ 0.438 µM)	2 µg/mL (≈ 1.75 µM)	0.5 µg/mL (≈ 0.438 µM)	1 µg/mL (≈ 0.876 µM)	>128 µg/mL	CC(C)CCCCC(=O)N[C@@H](CCN)C(=O)N[C@H](C(=O)N[C@@H](CCN)C(=O)N[C@H]1CCNC(=O)[C@H]([C@@H](C)O)NC(=O)[C@H](CCN)NC(=O)[C@H](CCN)NC(=O)[C@H](C(C)C)NC(=O)[C@@H](CC(C)C)NC(=O)[C@H](CCN)NC1=O)[C@@H](C)O [Compound 76, 6-methylheptanoyl-Dab-Thr-Dab-ring(4-10)[Dab-Dab-D-Leu-Val-Dab-Dab-Thr]] ({Heptanoyl(6-Me)}-[Dab]T[Dab][Dab][Dab][dL]V[Dab][Dab]T; lactam 4-C)	225 ± 17 µg/mL (≈ 197 µM)	–	–	–	–	–	–
0.5 µg/mL (≈ 0.437 µM)	1 µg/mL (≈ 0.875 µM)	0.5 µg/mL (≈ 0.437 µM)	0.5 µg/mL (≈ 0.437 µM)	>128 µg/mL	CC(C)CCCCC(=O)N[C@@H](CCN)C(=O)N[C@H](C(=O)N[C@H](CCN)C(=O)N[C@H]1CCNC(=O)[C@H]([C@@H](C)O)NC(=O)[C@H](CCN)NC(=O)[C@H](CCN)NC(=O)[C@H]([C@@H](C)O)NC(=O)[C@@H](CC(C)C)NC(=O)[C@H](CCN)NC1=O)[C@@H](C)O [Compound 31, 6-methylheptanoyl-Dab-Thr-D-Dab-ring(4-10)[Dab-Dab-D-Leu-Thr-Dab-Dab-Thr]] ({Heptanoyl(6-Me)}-[Dab]T[dDab][Dab][Dab][dL]T[Dab][Dab]T; lactam 4-C)	288 ± 23.3 µg/mL (≈ 252 µM)	–	–	–	–	–	–
1 µg/mL (≈ 0.865 µM)	2 µg/mL (≈ 1.73 µM)	1 µg/mL (≈ 0.865 µM)	1 µg/mL (≈ 0.865 µM)	128 µg/mL (≈ 111 µM)	CC[C@H](C)[C@@H]1NC(=O)[C@@H](CC(C)C)NC(=O)[C@H](CCN)NC(=O)[C@@H](NC(=O)[C@H](CCN)NC(=O)[C@@H](NC(=O)[C@H](CCN)NC(=O)CCCCC(C)C)[C@@H](C)O)CCNC(=O)[C@H]([C@@H](C)O)NC(=O)[C@H](CCN)NC(=O)[C@H](CCN)NC1=O [Compound 75, 6-methylheptanoyl-Dab-Thr-Dab-ring(4-10)[Dab-Dab-D-Leu-Ile-Dab-Dab-Thr]] ({Heptanoyl(6-Me)}-[Dab]T[Dab][Dab][Dab][dL]I[Dab][Dab]T; lactam 4-C)	199 ± 13.1 µg/mL (≈ 172 µM)	–	–	–	–	–	–
0.5 µg/mL (≈ 0.442 µM)	2 µg/mL (≈ 1.77 µM)	0.25 µg/mL (≈ 0.221 µM)	0.12 µg/mL (≈ 0.106 µM)	>128 µg/mL	CC(C)CCCCC(=O)N[C@@H](CCN)C(=O)N[C@H](C(=O)N[C@H](CO)C(=O)N[C@H]1CCNC(=O)[C@H]([C@@H](C)O)NC(=O)[C@H](CCN)NC(=O)[C@H](CCN)NC(=O)[C@H]([C@@H](C)O)NC(=O)[C@@H](CC(C)C)NC(=O)[C@H](CCN)NC1=O)[C@@H](C)O [Compound 59, 6-methylheptanoyl-Dab-Thr-D-Ser-ring(4-10)[Dab-Dab-D-Leu-Thr-Dab-Dab-Thr]] ({Heptanoyl(6-Me)}-[Dab]T[dS][Dab][Dab][dL]T[Dab][Dab]T; lactam 4-C)	318 ± 25.6 µg/mL (≈ 281 µM)	–	–	–	–	–	–
